Laboratory results published in ChEMBL document CHEMBL1148070, “Cytotoxic saponins from New Zealand Myrsine species” (1994).
≈ marks a conversion by molar mass, not a printed value. Calls of active or inactive are those of the source. The rule behind the calls is not given here.

Key:
P388 = experiment: Cytotoxicity against mouse P388 cells; format: functional; settings: read-out: ID50 (the source's name)
Human alphaherpesvirus 1 = experiment: Antiviral activity against HSV1 assessed as inhibition of virus-induced cytopathic effect 40 ug/disk; format: functional, organism-based
Poliovirus 1 = experiment: Antiviral activity against Human poliovirus 1 assessed as inhibition of virus-induced cytopathic effect 40 ug/disk; format: functional, organism-based

SMILES | IC50 (P388) | inhibition (Human alphaherpesvirus 1) | inhibition (Poliovirus 1)
C[C@@H]1O[C@@H](O[C@H]2[C@H](O[C@H]3CO[C@@H](O[C@H]4CC[C@]5(C)[C@H]6CC[C@]78OC(O)[C@@]9(CCC(C)(C)C[C@H]97)[C@H](O)C[C@@]8(C)[C@]6(C)CC[C@H]5C4(C)C)[C@H](O[C@@H]4O[C@H](CO)[C@@H](O)[C@H](O)[C@H]4O)[C@H]3O)O[C@H](CO)[C@@H](O)[C@@H]2O)[C@H](O)[C@H](O)[C@H]1O (some centres undefined) | > 12.5 µg/mL | Active | Active
CC1(C)CC[C@]23C(O)O[C@@]4(CC[C@@H]5[C@@]6(C)CC[C@H](O[C@@H]7OC[C@H](O[C@@H]8O[C@H](CO)[C@@H](O)[C@H](O)[C@H]8O[C@@H]8OC[C@@H](O)[C@H](O)[C@H]8O)[C@H](O)[C@H]7O[C@@H]7O[C@H](CO)[C@@H](O)[C@H](O)[C@H]7O)C(C)(C)[C@@H]6CC[C@@]5(C)[C@]4(C)C[C@H]2O)[C@@H]3C1 (some centres undefined) | 7 µg/mL (≈ 6.58 µM) | Active | Active
CC1(C)CC[C@]23C(=O)O[C@@]4(CC[C@@H]5[C@@]6(C)CC[C@H](O[C@@H]7OC[C@H](O[C@@H]8O[C@H](CO)[C@@H](O)[C@H](O)[C@H]8O[C@@H]8OC[C@@H](O)[C@H](O)[C@H]8O)[C@H](O)[C@H]7O[C@@H]7O[C@H](CO)[C@@H](O)[C@H](O)[C@H]7O)C(C)(C)[C@@H]6CC[C@@]5(C)[C@]4(C)C[C@H]2O)[C@@H]3C1 | > 12.5 µg/mL | Active | Active
C[C@@H]1O[C@@H](O[C@H]2[C@H](O[C@H]3CO[C@@H](O[C@H]4CC[C@]5(C)[C@H]6CC[C@]78OC[C@@]9(CC[C@](C)(C=O)C[C@H]97)[C@H](O)C[C@@]8(C)[C@]6(C)CC[C@H]5C4(C)C)[C@H](O[C@@H]4O[C@H](CO)[C@@H](O)[C@H](O)[C@H]4O)[C@H]3O)O[C@H](CO)[C@@H](O)[C@@H]2O)[C@H](O)[C@H](O)[C@H]1O [ARDISIACRISPIN B] | 8.6 µg/mL (≈ 8 µM) | Active | Active
CC1(C)[C@@H](O[C@@H]2OC[C@H](O[C@@H]3O[C@H](CO)[C@@H](O)[C@H](O)[C@H]3O[C@@H]3OC[C@@H](O)[C@H](O)[C@H]3O)[C@H](O)[C@H]2O[C@@H]2O[C@H](CO)[C@@H](O)[C@H](O)[C@H]2O)CC[C@]2(C)[C@H]3CC[C@]45OC[C@@]6(CC[C@](C)(C=O)C[C@H]64)[C@H](O)C[C@@]5(C)[C@]3(C)CC[C@@H]12 [ARDISIACRISPIN A] | 7 µg/mL (≈ 6.6 µM) | Active | Active
C[C@@H]1O[C@@H](O[C@H]2[C@H](O[C@H]3CO[C@@H](O[C@H]4CC[C@]5(C)[C@H]6CC[C@]78OC(=O)[C@@]9(CCC(C)(C)C[C@H]97)[C@H](O)C[C@@]8(C)[C@]6(C)CC[C@H]5C4(C)C)[C@H](O[C@@H]4O[C@H](CO)[C@@H](O)[C@H](O)[C@H]4O)[C@H]3O)O[C@H](CO)[C@@H](O)[C@@H]2O)[C@H](O)[C@H](O)[C@H]1O | 10.2 µg/mL (≈ 9.49 µM) | Active | Active
C[C@@H]1O[C@@H](O[C@H]2[C@H](O[C@H]3CO[C@@H](O[C@H]4CC[C@]5(C)[C@H]6CC[C@]78OC[C@@]9(CCC(C)(C)C[C@H]97)[C@H](O)C[C@@]8(C)[C@]6(C)CC[C@H]5C4(C)C)[C@H](O[C@@H]4O[C@H](CO)[C@@H](O)[C@H](O)[C@H]4O)[C@H]3O)O[C@H](CO)[C@@H](O)[C@@H]2O)[C@H](O)[C@H](O)[C@H]1O | 0.85 µg/mL (≈ 0.801 µM) | Active | Active
CC1(C)CC[C@]23CO[C@@]4(CC[C@@H]5[C@@]6(C)CC[C@H](O[C@@H]7OC[C@H](O[C@@H]8O[C@H](CO)[C@@H](O)[C@H](O)[C@H]8O[C@@H]8OC[C@@H](O)[C@H](O)[C@H]8O)[C@H](O)[C@H]7O[C@@H]7O[C@H](CO)[C@@H](O)[C@H](O)[C@H]7O)C(C)(C)[C@@H]6CC[C@@]5(C)[C@]4(C)C[C@H]2O)[C@@H]3C1 [LYSIKOKIANOSIDE 1] | 0.85 µg/mL (≈ 0.812 µM) | Active | Active
